The text below walks through data of patent publication US20240109853A1 (Shanghai Yao Yuan Biotechnology Co., Ltd., priority 2020, published 2024).

The target of one assay is ALPK1 (Homo sapiens (Human), UniProt Q96QP1). Description: ALPK1 in vitro kinase assay (HTRF of TIFA phosphorylation). The class given is biochemical. (In general: TR-FRET usually uses a lanthanide donor and a delayed reading to cut background.)
The test system of assay [1] is ALPK1-dependent NFκB reporter gene activation in HEK293 cells stably expressing an NF-kB reporter (G9 cells). Put plainly: NFκB gene reporter alkaline phosphatase assay. The class given is cell-based. As to conditions: read-out: NFkB assay IC50. Summed up:
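Inhibition of ALPK1-driven NF-kB activation is measured as reduced reporter phosphatase activity after agonist challenge with D-glycero-D-manno-6-fluoro-heptose-1β-S-ADP. Cells receive serially diluted compound 30 min beforehand. Values are IC50s from non-linear regression.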

Like-named read-outs stand apart in the source and are kept apart here.

Sequence of ALPK1 (Q96QP1 whole entry): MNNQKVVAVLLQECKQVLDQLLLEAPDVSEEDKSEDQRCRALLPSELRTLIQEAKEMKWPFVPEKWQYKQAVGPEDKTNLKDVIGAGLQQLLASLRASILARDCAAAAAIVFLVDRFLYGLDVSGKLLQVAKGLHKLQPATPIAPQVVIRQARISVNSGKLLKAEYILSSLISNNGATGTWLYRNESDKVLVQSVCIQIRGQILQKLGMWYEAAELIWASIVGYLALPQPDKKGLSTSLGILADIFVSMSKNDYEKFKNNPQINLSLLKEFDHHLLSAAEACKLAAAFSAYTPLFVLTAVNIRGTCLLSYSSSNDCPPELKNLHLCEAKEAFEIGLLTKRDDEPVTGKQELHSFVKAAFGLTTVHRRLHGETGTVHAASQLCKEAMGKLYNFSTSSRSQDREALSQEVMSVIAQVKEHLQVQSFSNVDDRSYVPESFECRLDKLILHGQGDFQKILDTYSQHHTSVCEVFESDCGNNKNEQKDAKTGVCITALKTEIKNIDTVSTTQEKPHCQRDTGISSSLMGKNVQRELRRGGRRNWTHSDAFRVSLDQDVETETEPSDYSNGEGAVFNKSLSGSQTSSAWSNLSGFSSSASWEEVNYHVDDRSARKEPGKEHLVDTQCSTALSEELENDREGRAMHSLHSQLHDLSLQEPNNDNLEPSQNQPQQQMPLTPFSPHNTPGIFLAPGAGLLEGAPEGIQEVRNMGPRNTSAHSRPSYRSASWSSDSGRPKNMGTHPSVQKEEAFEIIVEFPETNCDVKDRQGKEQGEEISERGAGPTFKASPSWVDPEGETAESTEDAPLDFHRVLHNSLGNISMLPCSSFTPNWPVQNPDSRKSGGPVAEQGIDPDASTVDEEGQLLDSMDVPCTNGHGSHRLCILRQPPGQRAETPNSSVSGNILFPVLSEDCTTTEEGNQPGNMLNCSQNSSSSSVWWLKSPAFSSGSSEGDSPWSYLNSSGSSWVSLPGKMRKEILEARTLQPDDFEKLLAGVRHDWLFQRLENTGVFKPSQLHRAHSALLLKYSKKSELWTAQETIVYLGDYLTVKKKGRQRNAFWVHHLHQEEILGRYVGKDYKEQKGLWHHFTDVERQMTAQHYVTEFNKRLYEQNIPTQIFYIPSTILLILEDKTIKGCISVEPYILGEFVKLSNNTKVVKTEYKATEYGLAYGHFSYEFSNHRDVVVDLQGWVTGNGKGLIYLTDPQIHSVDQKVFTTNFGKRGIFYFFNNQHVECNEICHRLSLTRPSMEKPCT

By IC50 is commonly meant the concentration that inhibits the measured activity by half. With `COc1ccc(C(C)(C)c2csc(NC(=O)NCCCN3CCOCC3)n2)cc1` [Example A134, 1-(4-(2-(4-methoxyphenyl)propan-2-yl)thiazol-2-yl)-3-(3-morpholinopropyl)urea], the IC50 was found to be 152 nM on ALPK1 and 5110 nM in assay [1] (Homo sapiens, HEK293).
On the same counts, the results for `CC(C)(c1ccc(Br)cc1)c1csc(NC(=O)NCc2cc(N3CCNCC3)ncn2)n1` [Example A094, 1-(4-(2-(4-bromophenyl)propan-2-yl)thiazol-2-yl)-3-((6-(piperazin-1-yl)pyrimidin-4-yl)methyl)urea] are 73 nM and 1290 nM.
On to `C#CC(C)(c1ccc(Cl)cc1)c1csc(NC(=O)N(C)CCO)n1` (centres unmarked) [Example A254, 3-(4-(2-(4-chlorophenyl)but-3-yn-2-yl)thiazol-2-yl)-1-(2-hydroxyethyl)-1-methylurea], for which the concentration for half-maximal inhibition (IC50) against ALPK1 stood at 548 nM; in assay [1] (Homo sapiens, HEK293) it was 2070 nM.
For the compound `C#C[C@](C)(c1ccc(Br)cc1)c1csc(NC(=O)NCC(O)CO)n1` (stereo in doubt) [Example A277, 1-(4-(2-(4-bromophenyl)but-3-yn-2-yl)thiazol-2-yl)-3-(2,3-dihydroxypropyl)urea], the IC50 at ALPK1 was 2670 nM; in assay [1] (Homo sapiens, HEK293), 1230 nM.
Consider `C#CC(C)(c1ccc(Cl)cc1)c1csc(NC(=O)NO)n1` (centres unmarked) [Example A271, 1-(4-(2-(4-chlorophenyl)but-3-yn-2-yl)thiazol-2-yl)-3-hydroxyurea], for which the concentration for half-maximal inhibition (IC50) was 493 nM on ALPK1 and 730 nM in assay [1] (Homo sapiens, HEK293).
For `CC(C)(c1ccc(Br)cc1)c1csc(NC(=O)NCc2ccc(N3CCNCC3)cc2Cl)n1` [Example A048, 1-(4-(2-(4-bromophenyl)propan-2-yl)thiazol-2-yl)-3-(2-chloro-4-(piperazin-1-yl)benzyl)urea], the IC50 on ALPK1 stood at 138 nM; in assay [1] (Homo sapiens, HEK293) it was 1530 nM.
For the compound `COc1ccc(C(C)(C)c2csc(NC(=O)NCc3ccc(C(=O)N4CCC(N)C4)nc3)n2)cc1` (centres unmarked) [Example A217, 1-((6-(3-aminopyrrolidine-1-carbonyl)pyridin-3-yl)methyl)-3-(4-(2-(4-methoxyphenyl)propan-2-yl)thiazol-2-yl)urea], the IC50 at ALPK1 was determined as 56 nM; in assay [1] (Homo sapiens, HEK293), 32600 nM.
As for `CC(C)(c1ccc(Br)cc1)c1csc(NC(=O)NCc2cncnc2)n1` [Example A004, 1-(4-(2-(4-bromophenyl)propan-2-yl)thiazol-2-yl)-3-(pyrimidin-5-ylmethyl)urea], the half-inhibitory concentration (IC50) against ALPK1 was 240 nM; in assay [1] (Homo sapiens, HEK293), 2030 nM.
As to `CN1CCN(Cc2ccc(CNC(=O)Nc3nc(C(C)(C)c4ccc(Br)cc4)cs3)cc2)CC1` [Example A016, 1-(4-(2-(4-bromophenyl)propan-2-yl)thiazol-2-yl)-3-(4-((4-methylpiperazin-1-yl)methyl)benzyl)urea], the IC50 against ALPK1 worked out at 27 nM; in assay [1] (Homo sapiens, HEK293) it was 2340 nM.
Take `COc1ccc(C(C)(C)c2csc(NC(=O)NCc3ccc(N4CCC(N)C4)nc3)n2)cc1` (centres unmarked) [Example A186, 1-((6-(3-aminopyrrolidin-1-yl)pyridin-3-yl)methyl)-3-(4-(2-(4-methoxyphenyl)propan-2-yl)thiazol-2-yl)urea]: the IC50 came out at 19 nM against ALPK1 and 1550 nM in assay [1].
With `COc1ccc(C(C)(C)c2csc(NC(=O)NCc3ccc(CN4CCNCC4)c(F)c3)n2)cc1` [Example A037, 1-(3-fluoro-4-(piperazin-1-ylmethyl)benzyl)-3-(4-(2-(4-methoxyphenyl)propan-2-yl)thiazol-2-yl)urea], the IC50 on ALPK1 worked out at 57 nM; in assay [1] (Homo sapiens, HEK293), 2510 nM.
In the case of `CC(C)(c1ccc(Br)cc1)c1csc(NC(=O)NCc2cnc(N3CCNCC3)c(F)c2)n1` [Example A038, 1-(4-(2-(4-bromophenyl)propan-2-yl)thiazol-2-yl)-3-((5-fluoro-6-(piperazin-1-yl)pyridin-3-yl)methyl)urea], the IC50 at ALPK1 was determined as 30 nM; in assay [1] (Homo sapiens, HEK293), 1660 nM.
Consider `COc1ccc(C(C)(C)c2csc(NC(=O)NCc3ccc(NCCN)nc3)n2)cc1` [Example A202, 1-((6-((2-aminoethyl)amino)pyridin-3-yl)methyl)-3-(4-(2-(4-methoxyphenyl)propan-2-yl)thiazol-2-yl)urea], for which the half-inhibitory concentration (IC50) against ALPK1 was 34 nM; in assay [1] (Homo sapiens, HEK293) it was 5710 nM.
As to `C#C[C@](C)(c1ccc(Cl)cc1)c1csc(NC(=O)NC[C@H](O)CO)n1` [Example A302, 1-(4-(2-(4-chlorophenyl)but-3-yn-2-yl)thiazol-2-yl)-3-((S)-2,3-dihydroxypropyl)urea], the IC50 was determined as 417 nM at ALPK1 and 2040 nM in assay [1] (Homo sapiens, HEK293).
Turning to `C#C[C@](C)(c1ccc(F)cc1)c1csc(NC(=O)NCCO)n1` (stereo in doubt) [Example A282, 1-(4-(2-(4-fluorophenyl)but-3-yn-2-yl)thiazol-2-yl)-3-(2-hydroxyethyl)urea], the IC50 against ALPK1 came out at 2150 nM; in assay [1] (Homo sapiens, HEK293), 7720 nM.
Turning to `CC(C)(c1ccc(Br)c(F)c1)c1csc(NC(=O)NCc2cnc(N3CCNCC3)nc2)n1` [Example A196, 1-(4-(2-(4-bromo-3-fluorophenyl)propan-2-yl)thiazol-2-yl)-3-((2-(piperazin-1-yl)pyrimidin-5-yl)methyl)urea], the IC50 on ALPK1 turned out to be 76 nM; in assay [1] (Homo sapiens, HEK293), 3340 nM.
Regarding `C#C[C@@](C)(c1ccc(Cl)cc1)c1csc(NC(=O)NC[C@@H](O)CO)n1` [Example A303, 1-(4-(2-(4-chlorophenyl)but-3-yn-2-yl)thiazol-2-yl)-3-((R)-2,3-dihydroxypropyl)urea], the IC50 against ALPK1 stood at 101 nM; in assay [1] (Homo sapiens, HEK293) it was 660 nM.
Consider `CC(C)(c1ccc(Br)cc1)c1csc(NC(=O)NCCCN2CCC(O)C2)n1` (centres unmarked) [Example A129, 1-(4-(2-(4-bromophenyl)propan-2-yl)thiazol-2-yl)-3-(3-(3-hydroxypyrrolidin-1-yl)propyl)urea], for which the IC50 against ALPK1 turned out to be 40 nM; in assay [1] (Homo sapiens, HEK293) it was 510 nM.
On the same counts, the results for `COc1ccc(C(C)(C)c2csc(NC(=O)NCc3ccc(NCCN)cc3)n2)cc1` [Example A183, 1-(4-((2-aminoethyl)amino)ben-yzl)-3-(4-(2-(4-methoxyphenyl)propan-2-yl)thiazol-2-yl)urea] are 52 nM and 2310 nM.
`CC1CN(c2ccc(CNC(=O)Nc3nc(C(C)(C)c4ccc(Br)cc4)cs3)cc2)CC(C)N1` (centres unmarked) [Example A213, 1-(4-(2-(4-bromophenyl)propan-2-yl)thiazol-2-yl)-3-(4-(3,5-dimethylpiperazin-1-yl)benzyl)urea]: the 50% inhibitory concentration (IC50) on ALPK1 worked out at 9 nM; in assay [1] (Homo sapiens, HEK293) it was 6380 nM.
Take `C#C[C@](C)(c1ccc(Cl)cc1)c1csc(NC(=O)N2CC(c3ccc(N4CCNCC4)c(F)c3)C2)n1` [Example A246, (R)-N-(4-(2-(4-chlorophenyl)but-3-yn-2-yl)thiazol-2-yl)-3-(3-fluoro-4-(piperazin-1-yl)phenyl)azetidine-1-carboxamide]: the IC50 on ALPK1 came to 29 nM; in assay [1] (Homo sapiens, HEK293) it was 1590 nM.
On the same counts, the results for `COc1ccc(C(C)(C)c2csc(NC(=O)N3CC(c4ccc(N5CCNCC5)cc4)C3)n2)cc1` [Example A233, N-(4-(2-(4-methoxyphenyl)propan-2-yl)thiazol-2-yl)-3-(4-(piperazin-1-yl)phenyl)azetidine-1-carboxamide] are 43 nM and 330 nM.
Consider `C#C[C@@](C)(c1ccc(Br)cc1)c1csc(NC(=O)N2CC(CO)C2)n1` [Example A167, (S)-N-(4-(2-(4-bromophenyl)but-3-yn-2-yl)thiazol-2-yl)-3-(hydroxymethyl)azetidine-1-carboxamide], for which the IC50 against ALPK1 turned out to be 7 nM; in assay [1] (Homo sapiens, HEK293) it was 740 nM.
As for `CNS(=O)(=O)CCCNC(=O)Nc1nc(C(C)(C)c2ccc(OC)cc2)cs1` [Example A148, 3-(3-(4-(2-(4-methoxyphenyl)propan-2-yl)thiazol-2-yl)ureido)-N-methylpropane-1-sulfonamide], the half-inhibitory concentration (IC50) against ALPK1 is 45 nM; in assay [1] (Homo sapiens, HEK293), 850 nM.
Regarding `C#CC(CC)(c1ccc(Br)cc1)c1csc(NC(=O)NCCO)n1` (centres unmarked) [Example A157, 1-(4-(3-(4-bromophenyl)pent-1-yn-3-yl)thiazol-2-yl)-3-(2-hydroxyethyl)urea], the concentration for half-maximal inhibition (IC50) against ALPK1 worked out at 22 nM; in assay [1] (Homo sapiens, HEK293), 1360 nM.
Turning to `COc1ccc(C(C)(C)c2csc(NC(=O)NC3CCC(O)CC3)n2)cc1` (centres unmarked) [Example A122, 1-(4-hydroxycyclohexyl)-3-(4-(2-(4-methoxyphenyl)propan-2-yl)thiazol-2-yl)urea], the half-inhibitory concentration (IC50) worked out at 219 nM against ALPK1 and 1700 nM in assay [1] (Homo sapiens, HEK293).
As for `C#C[C@](C)(c1ccc(OC)cc1)c1csc(NC(N)=O)n1` [Example A172, (R)-1-(4-(2-(4-methoxyphenyl)but-3-yn-2-yl)thiazol-2-yl)urea], the concentration for half-maximal inhibition (IC50) on ALPK1 is 36 nM; in assay [1] (Homo sapiens, HEK293) it was 1280 nM.
Regarding `C#CC(C)(c1ccc(Cl)cc1)c1csc(NC(=O)N(CCO)CCO)n1` (centres unmarked) [Example A253, 3-(4-(2-(4-chlorophenyl)but-3-yn-2-yl)thiazol-2-yl)-1,1-bis(2-hydroxyethyl)urea], the IC50 against ALPK1 turned out to be 172 nM; in assay [1] (Homo sapiens, HEK293), 3050 nM.
Turning to `CN1CCC(NC(=O)C2CCC(CNC(=O)Nc3nc(C(C)(C)c4ccc(Br)cc4)cs3)CC2)CC1` (centres unmarked) [Example A100, 4-((3-(4-(2-(4-bromophenyl)propan-2-yl)thiazol-2-yl)ureido)methyl)-N-(1-methylpiperidin-4-yl)cyclohexane-1-carboxamide], the half-inhibitory concentration (IC50) worked out at 72 nM on ALPK1 and 1370 nM in assay [1] (Homo sapiens, HEK293).
Turning to `CC(C)(c1ccc(Br)cc1)c1csc(NC(=O)NCCCS(N)(=O)=O)n1` [Example A132, 3-(3-(4-(2-(4-bromophenyl)propan-2-yl)thiazol-2-yl)ureido)propane-1-sulfonamide], the IC50 at ALPK1 is 80 nM; in assay [1] (Homo sapiens, HEK293) it was 4560 nM.
`COc1ccc(C(C)(C)c2csc(NC(=O)NCCCC(=O)NC3CCN(C)CC3)n2)cc1` [Example A070, 4-(3-(4-(2-(4-methoxyphenyl)propan-2-yl)thiazol-2-yl)ureido)-N-(1-methylpiperidin-4-yl)butanamide]: the IC50 against ALPK1 turned out to be 140 nM; in assay [1] (Homo sapiens, HEK293) it was 16900 nM.
